Measurements published in patent US20250163387A1, “HUMAN PITUITARY NEUROENDOCRINE TUMOR ORGANOIDS AND METHODS OF MAKING AND USING THE SAME” (ARIZONA BOARD OF REGENTS OF THE UNIVERSITY OF ARIZONA, A …, priority 2022, published 2025).
Numbered stars: 1 amine (or outer) side, 2 acyl side, 3 side chain; on linkers, the order of the positions; unused ones are H or OH. Square brackets hold non-standard residues; d marks the D form. Side chains are listed from the residue outwards. Peptide text beside a SMILES is read from it. * marks the point of attachment. Ethylenediamine = C(CN[*:2])N[*:1]; Hyp = O=C(O)[C@@H]1C[C@@H](O)CN1; Phg = N[C@H](C(=O)O)c1ccccc1; CO = O=C([*:1])[*:2]; Bn = c1ccc(C*)cc1

How the values were obtained:
SSTR2 = experiment: Differential expression of SSTR2 in iPSC generated pituitary tumor organoids; format: cell-based, human; settings: for effect on relacorilant stimulated SSTR2: iPSC organoids; for effect of pretreatment on Mifepristone-induced SSTR2 expression / differential expression of SSTR2: iPSC^ctrl organoids; for effect of pretreatment on Mifepristone-induced SSTR2 expression: GANT 5 uM, Keto 10 uM; for differential expression of SSTR2: drug alone (Mife 500 nM, GANT 5 uM, Keto 10 uM, Dexa 100 nM)
SSTR5 [1] = experiment: Differential expression of SSTR5 in iPSC generated pituitary tumor organoids; format: cell-based, human; settings: for effect on relacorilant stimulated SSTR5: iPSC organoids; for effect of pretreatment on Mifepristone-induced SSTR5 expression / differential expression of SSTR5: iPSC^ctrl organoids; for effect of pretreatment on Mifepristone-induced SSTR5 expression: GANT 5 uM, Keto 10 uM; for differential expression of SSTR5: drug alone (Mife 500 nM, GANT 5 uM, Keto 10 uM, Dexa 100 nM)
[2] = test system: transcriptional regulation of POMC by Gli1; experiment: Gene ChIP assay in hPITO cultures expressing USP8 and USP48 mutations; format: cell-based, human
hPITO35 = settings: for Dose response (cell viability): organoid 35, compared to Cabergoline
Experimental: (§1) Organoids were grown in Matrigel™ domes within 96-well round-bottom culture plates. Recombinant human SHH was removed from the pituitary organoid growth media, 24 hrs. prior to drug treatment. Organoids were treated with either vehicle (DMSO), cabergoline (Selleckchem S5842), ketoconazole (Selleckchem S1353), roscovitine (Selleckchem S1153), GANT61 (Stemcell Technologies 73692), pasireotide (TargetMol TP2207), mifeprostone (Selleckchem S2606), etomidate (Selleckchem S1329), mitotane (Selleckchem S1732), metyropane (Selleckchem S5416), or osilodrostat (Selleckchem S7456) at concentrations of 0, 1, 10, 100, 1000, and 10000 nM for 72 hours. Percent cell viability was measured using an MTS assay (Promega G3580). Absorbance was measured at 490 nm and normalized to the vehicle. Concentrations were plotted in a logarithmic scale, and a nonlinear dose-response curve regression was calculated using GraphPad Prism. An IC50 value for each drug treatment was determined based on the dose response curve using GraphPad Prism analysis software.

iPSC^USP48MV organoids [3] = experiment: ACTH secretion ELISA of conditioned media; format: cell-based, human; settings: for effect on ACTH secretion in response to Mifepristone: 100 nM with Mife 500 nM
Experimental: (§2) Concentration of secreted ACTH in conditioned media that was collected from organoid cultures was measured using the Human ACTH ELISA Kit (Novus Biologicals, NBP2-66401) according to the manufacturer's protocol. The enzyme-substrate reaction was measured spectrophotometrically (BioTek Gen5 Micro Plate Reader Version 3.11) at a wavelength of 450 nm and the ACTH concentration (pg/mL) was interpolated using a standard curve with a 4-parameter logistic regression analysis using GraphPad Prism (Version 9.2.0).

iPSC^ctrl organoids [4] = experiment: ACTH secretion ELISA of conditioned media; format: cell-based, human; settings: for effect on ACTH secretion in response to Mifepristone: 100 nM with Mife 500 nM
Experimental: as §2

iPSC^USP48MV organoids [5] = experiment: Proliferation by EdU uptake; format: cell-based, human; settings: 100 nM
Experimental: (§3) Organoids were immunostained using published protocols by our laboratory. Proliferation was measured by using 5-ethynyl-2'-deoxyuridine (EdU) incorporation according to the Manufacturer's protocol (Click-IT EdU Alexa Fluor 555 Imaging Kit, Thermo Fisher Scientific C10338). Costaining was performed by blocking fixed organoids with 2% donkey serum (Jackson Immuno Research, #017-000-121) diluted in 0.01% PBST for 1 hr. at room temperature. Organoids were then incubated overnight at 4° C. with primary antibodies followed by secondary antibodies and Hoechst (Thermo Fisher Scientific H1399, 1:1000 in 0.01% PBST) for 1 hr at room temperature. Human specific primary antibodies used included: rabbit anti-ACTH (Thermo Fisher Scientific 701293, 1:250), rabbit anti-Synaptophysin (Thermo Fisher Scientific PA5-27286, 1:100), […] (Thermo Fisher Scientific PA5-98650, 1:50), rabbit anti-LH (Thermo Fisher Scientific PA5-102674, 1:100), mouse anti-FSH (Thermo Fisher Scientific MIF2709, 1:100), mouse anti-PRL (Thermo Fisher Scientific CF500720, 1:100), Alexa Flour conjugated GH (NB500-364AF647, 1:100) and mouse anti-CAM5.2 (SIGMA […]-95, 1:250). The secondary antibodies used included Alexa Fluor 488 Donkey Anti Rabbit IgG (H+L) (Thermo Fisher Scientific A21206, 1:100) or Alexa Fluor 647 Donkey Anti Mouse IgG (H+L) (Thermo Fisher Scientific A31571, 1:100). Organoids were visualized and images acquired by confocal microscopy using the Nikon CrestV2 Spinning Disk. Fluorescence intensity and percentage of EdU positive cells of total cells, were calculated using Nikon Elements Software (Version 5.21.05).

iPSC^ctrl organoids [6] = experiment: Proliferation by EdU uptake; format: cell-based, human; settings: 100 nM
Experimental: as §3

hPITO37 = experiment: Spectral flow cytometry (SSTR2, SSTR5, ACTH, zombie); format: cell-based, human; settings: Pas 837.5 nM, Mife 2.85 nM
Experimental: The multicolor flow cytometry panel was designed using the Cytek®Full Spectrum Viewer online tool to calculate the similarity index. The organoids were harvested in cold SFDM media and centrifuged at 400×g for 5 minutes. Supernatant was discarded and organoids were dissociated to single cells using Accutase® (Thermo Fisher Scientific 00-4555-56). The enzymatic reaction was stopped using prewarmed DPBS and cells were then centrifuged at 400×g for 5 minutes and incubated with fluorochrome-conjugated/unconjugated primary surface or cytoplasmic antibodies at 4° C. for 30 minutes. Cells were then washed with Cell Staining Buffer (BioLegend #420-201) and incubated with secondary antibodies at 4° C. for 30 minutes. Cells were fixed using Cytofix/Cytoperm™ Fixation/Permeabilization Solution (BD Biosciences #554714) at 4° C. for 20 minutes, followed by washing with Fixation/Permeabilization wash buffer. Cells were then labeled with fluorochrome-conjugated/unconjugated intracellular primary antibodies at 4° C. for 30 minutes, washed and incubated with secondary antibodies at 4° C. for 30 minutes. Cells resuspended in cell staining buffer and fluorescence measured using the Cytek Aurora 5 Laser Spectral Flow Cytometer. An unstained cell sample was fixed and used as reference control. UltraComp eBeads™, Compensation Beads (Thermo Fisher Scientific #01-2222-42) were stained with the individual antibodies and used as single stain control for compensation and gating. Data was acquired using the Cytek™ Aurora and analyzed using Cytobank software (Beckman Coulter, Indianapolis, IN).

SSTR5 [7] = target: SSTR5 (Homo sapiens, UniProt P35346); settings: cited from earlier work
hPITO33 = experiment: Drug dose response, MTS cell viability assay; format: cell-based, human
hPITO34 = test system: hPITO34
Experimental: as §1

[8] = monotherapy; cited from earlier work
[9] = test system: hPITOs generated from CD patients; experiment: High-throughput drug screen, MTS assay; format: cell-based, human; settings: 1 uM, 72 hrs
Experimental: Patient adenoma-derived pituitary organoids were grown in 96-well plates and treated with 147 small molecules taken from the NCI AOD9 compound library for 72 hrs. (https://dtp.cancer.gov/organization/dscb/obtaining/available_plates.html). Drugs were diluted from 10 mM DMSO stock plates into 100 uM DMSO working stocks with a final concentration of 1 uM. All vehicle controls were treated with 0.1% DMSO. Organoid proliferation was measured using CellTiter 96® AQueous One Solution Cell Proliferation Assay kit (MTS, Promega, G3582) according to the manufacturer's instruction. Organoid death was calculated based on the absorbance readings at 490 nm, collected from the MTS assay relative to the vehicle controls. Drug screens were performed with biological replicates in same screen. Drugs were selected based on their ability to target key signaling pathways and clinical relevance to the treatment. Drug sensitivity is represented by cell viability and is significant at <0.5 suppressive effect of the drugs. The percent cell viability relative to the vehicle control was calculated. Correlation coefficient across each organoid were calculated using Pearson method to assess confidence in replication. Variance Component was detected for each drug across all organoids. A random effect model was run with a single random factor for each drug and estimated variance was calculated by rejecting the null hypothesis that there isn't variation among samples. The drug responses were grouped by variance factor large (vc>100), median (100>vc>50), and small (vc<50). Heatmap was used to display the differential responses in cell viability for the drugs.
Tumor recurrence can occur in as many as 30-50% of CD patients after successful surgical treatment. Unfortunately, bilateral adrenalectomy is the chosen surgical treatment for patients with persistent CD [35]. Bilateral adrenalectomy leads to the increased risk for development of Nelson's syndrome (progressive hyperpigmentation due to ACTH secretion and expansion of the residual pituitary tumor). Although the risk of developing Nelson's syndrome following adrenalectomy can be reduced by 50% with stereotactic radiotherapy, there is a need to develop medical therapies that directly target the pituitary adenoma. Thus, we established a high-throughput drug screening assay using patient-derived pituitary organoids. […] The replicates behaved consistently with the drug response with the correlation scores of >0.8 for these samples (FIG. 3a). We estimated the variance component for each drug across all organoids. […] The drug responses were grouped by variance factor large, median, and small. The larger the variance the more variable is the drug response across the organoids. […]

[10] = greater magnitude than Octreotide plus relacorilant

Chain of SSTR5 (Homo sapiens, UniProt P35346) (P35346 whole entry): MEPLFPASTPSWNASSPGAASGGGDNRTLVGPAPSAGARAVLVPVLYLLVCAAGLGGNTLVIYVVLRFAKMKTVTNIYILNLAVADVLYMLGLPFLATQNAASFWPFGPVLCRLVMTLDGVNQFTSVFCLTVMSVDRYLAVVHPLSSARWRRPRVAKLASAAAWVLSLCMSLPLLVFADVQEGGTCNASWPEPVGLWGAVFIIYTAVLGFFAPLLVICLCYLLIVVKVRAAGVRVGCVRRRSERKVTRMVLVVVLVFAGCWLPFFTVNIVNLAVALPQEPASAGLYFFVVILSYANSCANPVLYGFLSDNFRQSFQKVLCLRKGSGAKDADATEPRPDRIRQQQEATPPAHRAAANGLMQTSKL

## CN(C)c1ccccc1CN1CCCN(Cc2ccccc2N(C)C)C1c1ccncc1 [GANT61]
SSTR2
  effect on relacorilant stimulated SSTR2: inhibited
  effect of pretreatment on Mifepristone-induced SSTR2 expression: reduced
  differential expression of SSTR2: no effect
SSTR5 [1]
  effect on relacorilant stimulated SSTR5: inhibited
  effect of pretreatment on Mifepristone-induced SSTR5 expression: reduced
  differential expression of SSTR5: no effect
[2]
  transcriptional regulation of POMC by Gli1 (ChIP): blocked

## CC(C)(C(=O)c1cccnc1)c1cccnc1 [Metyrapone]
hPITO35
  Dose response (cell viability): better responses than Cabergoline

## C[C@@H](O)[C@@H]1NC(=O)[C@H](CCCCN)NC(=O)[C@@H](Cc2c[nH]c3ccccc23)NC(=O)[C@H](Cc2ccccc2)NC(=O)[C@@H](NC(=O)[C@H](N)Cc2ccccc2)CSSC[C@@H](C(=O)N[C@H](CO)[C@@H](C)O)NC1=O [Octreotide]
iPSC^USP48MV organoids [3]
  effect on ACTH secretion in response to Mifepristone: significantly reduced
iPSC^ctrl organoids [4]
  effect on ACTH secretion in response to Mifepristone: significantly reduced
iPSC^USP48MV organoids [5]
  effect of pretreatment on the proliferative response to Mife: inhibited
iPSC^ctrl organoids [6]
  effect of pretreatment on the proliferative response to Mife: inhibited

## NCCCC[C@@H]1NC(=O)[C@@H](Cc2c[nH]c3ccccc23)NC(=O)[C@H](c2ccccc2)NC(=O)[C@@H]2C[C@@H](OC(=O)NCCN)CN2C(=O)[C@H](Cc2ccccc2)NC(=O)[C@H](Cc2ccc(OCc3ccccc3)cc2)NC1=O [Pasireotide] (cyclo([Hyp]([CO-Ethylenediamine])[Phg][dW]KY(Bn)F))
hPITO37
  effect of pretreatment on Mife-increased number of ACTH expressing cells: not inhibited
SSTR5 [7]
  binding to SSTR5: high-affinity binding
iPSC^USP48MV organoids [3]
  effect on ACTH secretion in response to Mifepristone: significantly reduced
iPSC^USP48MV organoids [3]; [10]
  hormone (ACTH) secretion in combination with relacorilant: reduced hormone secretion
iPSC^ctrl organoids [4]
  effect on ACTH secretion in response to Mifepristone: significantly reduced
iPSC^ctrl organoids [4]; [10]
  hormone (ACTH) secretion in combination with relacorilant: reduced hormone secretion
iPSC^USP48MV organoids [5]
  effect of pretreatment on the proliferative response to Mife: no effect
iPSC^ctrl organoids [6]
  effect of pretreatment on the proliferative response to Mife: no effect
hPITO33; hPITO33, 72 hours, MTS cell viability
  IC50: 1.2 µM
hPITO34; hPITO34, 72 hours, MTS cell viability
  IC50: 0.0061 µM
hPITO35; hPITO35, 72 hours, MTS cell viability
  IC50: 1 µM
[8]
  patients with CD in whom cortisol is normalized: up to 42%

## C=CCN1C[C@H](C(=O)N(CCCN(C)C)C(=O)NCC)C[C@@H]2c3cccc4[nH]cc(c34)C[C@H]21 [cabergoline]
[9]; hPITO7, 10 and 25
  response of the adenoma cells within the organoids: ~0%
[9]; hPITO34 and hPITO35
  response of the adenoma cells within the organoids: 50%
hPITO33; organoid 33, compared to Metyrapone and osilodrostat
  Dose response (cell viability): better response at lower dose
hPITO34; organoid 34, compared to Metyrapone and osilodrostat
  Dose response (cell viability): better response at lower dose

## CC(=O)N1CCN(c2ccc(OCC3COC(Cn4ccnc4)(c4ccc(Cl)cc4Cl)O3)cc2)CC1 (centres unmarked) [ketoconazole]
SSTR2
  effect on relacorilant stimulated SSTR2: failed to block
  effect of pretreatment on Mifepristone-induced SSTR2 expression: no effect
  differential expression of SSTR2: no effect
SSTR5 [1]
  effect on relacorilant stimulated SSTR5: failed to block
  effect of pretreatment on Mifepristone-induced SSTR5 expression: no effect
  differential expression of SSTR5: no effect

## N#Cc1ccc([C@H]2CCc3cncn32)c(F)c1 [osilodrostat]
hPITO35
  Dose response (cell viability): better responses than Cabergoline
